Test results from patent US8658129B2, “Agents and methods for the imaging of myelin basic protein” (General Electric Company, priority 2009, dated 2014).

What was measured:
nerve tissue sections = assay: Ex vivo staining of nerve tissue sections by the agents (histochemical assay); type: binding, rat; design: key to Nerve binding, ex vivo: A+ indicates binding to nerves using the ex vivo histochemical assay; conditions: for Nerve binding, ex vivo: 10 uM agent, 20 minutes, nerve tissue sections; for staining of the trigeminal nerves: rat trigeminal nerve sections, FIG. 1
Source text: Various nerves including sciatic, femoral, brachial plexus, trigeminal, optic, and penile were harvested from male Sprague Dawley rats or male CD-1 mice. Tissue was fixed by perfusion and/or post-fixation with formalin. Following post-fixation, tissue was cryoprotected in a 20% sucrose solution made in phosphate buffered saline (PBS). Nerves were then flash-frozen using methanol and dry ice in OCT media. In some cases, PVDF membranes were used to help keep the nerves vertical in the OCT media. Thin sections (5-10 microns) were sliced on a Leica microtome (Leica Microsystems GmbH, Wetzlar Germany) and stored in a −80° C. freezer prior to staining with agents (1)-(5).
The agents were dissolved in DMSO to make a 10 mM stock solution. Slides containing nerve tissue sections were rinsed three times with PBS. The tissue sections were incubated with a solution of 10 uM of each fluorophore diluted in either PBS or a mixture of 99 uL DMSO, 100 uL cremaphor, 600 uL rat serum, and 200 uL PBS for 20 minutes. The slides were then washed with PBS for 5 min three times, cover-slipped with Vectashield and imaged on a Zeiss Axioimager microscope (Carl Zeiss Meditec, Inc., Oberkochen, Germany) at 200× magnification. A custom filter cube (excitation filter: 387 nm with 11 nm bandpass, 409 nm dichroic mirror; emission filter 409 nm long pass) was used to collect images for examination of morphology and for image analysis.
The control slides, containing the nerves with no agent (not shown), was negative under the same imaging conditions.

[1] = Absorbance and fluorescence spectra of the agents; type: physicochemical; conditions: for Excitation (DMSO): excitation maximum in 100% DMSO; for Excitation(MeOH): excitation maximum in absolute methanol; for ExcitationddH2O: excitation maximum in distilled/deionized water; for Emission(DMSO): fluorescence emission maximum in DMSO; for Emission(MeOH): fluorescence emission maximum in MeOH; for EmissionddH2O: fluorescence emission maximum in ddH2O
Description: Absorbance spectra of the agents were measured using a UV-Vis spectrometer (PerkinElmer Lambda™ 20, PerkinElmer, Inc., Waltham Mass.) in wavelengths ranging from 200-to-800 nm in 100% dimethylsulfoxide (DMSO), absolute methanol (MeOH), and distilled/deionized water (ddH2O). The wavelength corresponding to the maximum absorbance is recorded and used as the excitation wavelength for future fluorescence measurements.
The fluorescence spectra of the agents were collected in DMSO, MeOH, and ddH2O under continuous excitation using a xenon short arc light source (Ushio UXL 75W, Ushio America, Inc., Cyress Calif.) equipped fluorimeter (350-900 nm; PTI Fluorimeter, Photon Technology International Birmingham, N.J.). A+ indicates binding to nerves using the ex vivo histochemical assay.

nerves = assay: In vivo fluorescence imaging of nerves; design: species or system mice; conditions: for nerve-to-adipose tissue ratio: fluorescence emission of 600 nm, compared to agents (4) and (5), FIG. 2
Description: To assess the efficacy of the sulfonamide agents in-vivo the agents were formulated using the following excipients: 5-20% propylene glycol (v/v; JT Baker 9402-01), 5-30% 2-Hydroxylpropyl-β-Cyclodextrin (w/v; Sigma H5784) and 70-90% distilled/deionized water (v/v).
To prepare the pharmaceutical carrier, each excipient is added individually beginning with propylene glycol. Propylene glycol is added directly to the agent and vortexed for approximately 1 minute to guarantee maximal dispersal of the agent in the excipient. The next excipient to be added to the solution is 2-Hydroxylpropyl-β-Cyclodextrin. Cyclodextrin's are cyclic (R-1,4) linked oligosaccharides containing a relatively hydrophobic central cavity and hydrophilic outer surface. The application of cyclodextrin in formulation is to enhance the solubility of a compound in aqueous solutions. In formulation of the sulfonamide analogs a final concentration of 5-15%; 2-Hydroxypropyl β-cyclodextrin (w/v) is added to the solution. The formulation is again vortexed for 1-5 minutes and the pH adjusted to a final range between 4-5. The final step in the formulation is to bring the solution to the volume with distilled/deionized water.
Male CD-1 mice between 25-35 grams were purchased from Charles River Laboratories (Wilmington, Mass.). Prior to administration of the agent, animals were briefly anesthetized using 2% isofluorane. Each agent was then administered in a 15.2 mg/kg dose via tail vein catheterization. Each rodent was allowed to recover from anesthesia prior to returning to the home cage.
Structure (2) and (3) were administered at an average of 15 mg/kg formulated in the pharmaceutical carrier. Formulated agents were administered in mice 4 hours prior to imaging using a Zeiss Lumara microscope (Carl Zeiss Meditec, Inc., Oberkochen, Germany) with an attached CRI Nuance™ camera for multispectral fluorescence imaging (Cambridge Research & Instrumentation, Inc., Woburn, Mass.). The excitation wavelengths used were 406/15 nm or 460/60 nm.
The adjacent muscle tissues had very low background binding. […]

[2] = Dynamic light scattering measurement of aqueous solubility; type: physicochemical; conditions: 25° C., angle of 173°, in nm (unit assumed)
Description: Dynamic light scattering spectroscopy was used to measure aqueous solubility. Measurements were collected on a Malvern HPPS500 spectrometer (Malvern Instruments Inc., Southborough, Mass.). Samples were measured in a low volume disposable cuvette at 25° C., at an angle of 173°. Each sample was analyzed in duplicate. Z average measurements were taken to determine the relative molecular “size” of the formulation in terms of the hydrodynamic diameter (DH) radius in solution. DH is inversely related the z-average translational diffusion coefficient (D) in the solution.

SMILES	Nerve binding, ex vivo (nerve tissue sections)	staining of the trigeminal nerves (nerve tissue sections)	Excitation (DMSO) [1]	Excitation(MeOH) [1]	ExcitationddH2O [1]	Emission(DMSO) [1]	Emission(MeOH) [1]	EmissionddH2O [1]	nerve-to-adipose tissue ratio (nerves)	Z-average [2]	time at which nerve-to-muscle ratio is best (nerves; mice, FIG. 4)
COc1cc(/C=C/c2ccc(S(=O)(=O)N3CCOCC3)cc2)ccc1/C=C/c1ccc(N)cc1 [(1)]	+	myelinated donut-shaped structures are visible	422 nm	392 nm	380 nm	621 nm	604 nm	581 nm			
COc1cc(/C=C/c2ccc(S(=O)(=O)N3CCN(CCO)CC3)cc2)ccc1/C=C/c1ccc(N)cc1.Cl [Structure 3]									higher		
COc1cc(/C=C/c2ccc(S(=O)(=O)N3CCN(CCO)CC3)cc2)ccc1/C=C/c1ccc(N)cc1.Cl [(3)]	+	myelinated donut-shaped structures are visible	388 nm	380 nm	412 nm	615 nm	488 nm	626 nm		29.70	
COc1cc(/C=C/c2ccc(S(=O)(=O)N(CCO)CCO)cc2)ccc1/C=C/c1ccc(N)cc1 [Structure 2]									higher		
COc1cc(/C=C/c2ccc(C#N)cc2)ccc1/C=C/c1ccc(N)cc1 [(5)]										7365.00	four
COc1cc(/C=C/c2ccc(S(C)(=O)=O)cc2)ccc1/C=C/c1ccc(N)cc1 [(4)]										2210.00	
COc1cc(/C=C/c2ccc(S(=O)(=O)N(CCO)CCO)cc2)ccc1/C=C/c1ccc(N)cc1 [(2)]	+	myelinated donut-shaped structures are visible	392 nm	391 nm	409 nm	600 nm	680 nm	620 nm			
